According to PubChem BioAssay (NCI):
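Results reflect a 48-hour exposure of cells in 96-well plates to compound at five concentrations. Definition used: TGI = concentration required for complete inhibition of growth.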

Legend:
Test in all cases: NCI tumour cell line growth inhibition, 48 h
[1] = tested on: 786-0 renal
[2] = tested on: A498 renal
[3] = tested on: A549 NSCLC
[4] = tested on: ACHN renal
[5] = tested on: BT-549 breast
[6] = tested on: CAKI-1 renal
[7] = tested on: CCRF-CEM leukemia
[8] = tested on: COLO 205 colon
[9] = tested on: DU-145 prostate
[10] = tested on: EKVX NSCLC
[11] = tested on: HCC-2998 colon
[12] = tested on: HCT-116 colon
[13] = tested on: HCT-15 colon
[14] = tested on: HL-60(TB) leukemia
[15] = tested on: HOP-62 NSCLC
[16] = tested on: HOP-92 NSCLC
[17] = tested on: HS 578T breast
[18] = tested on: HT29 colon
[19] = tested on: IGROV1 ovarian
[20] = tested on: K-562 leukemia
[21] = tested on: KM12 colon
[22] = tested on: LOX IMVI melanoma
[23] = tested on: M14 melanoma
[24] = tested on: MCF7 breast
[25] = tested on: MDA-MB-231 breast
[26] = tested on: MDA-MB-435
[27] = tested on: MDA-N
[28] = tested on: MOLT-4 leukemia
[29] = tested on: NCI-H226 lung
[30] = tested on: NCI-H23 lung
[31] = tested on: NCI-H460 lung
[32] = tested on: NCI-H522 lung
[33] = tested on: NCI/ADR-RES ovarian
[34] = tested on: OVCAR-3 ovarian
[35] = tested on: OVCAR-4 ovarian
[36] = tested on: OVCAR-5 ovarian
[37] = tested on: OVCAR-8 ovarian
[38] = tested on: PC-3 prostate
[39] = tested on: RPMI-8226 leukemia
[40] = tested on: RXF 393 renal
[41] = tested on: SF-268 CNS
[42] = tested on: SF-295 CNS
[43] = tested on: SF-539 CNS
[44] = tested on: SK-MEL-2 melanoma
[45] = tested on: SK-MEL-5 melanoma
[46] = tested on: SK-OV-3 ovarian
[47] = tested on: SN12C renal
[48] = tested on: SNB-19 CNS
[49] = tested on: SNB-75 CNS
[50] = tested on: SW-620 colon
[51] = tested on: T-47D breast
[52] = tested on: TK-10 renal
[53] = tested on: U251 CNS
[54] = tested on: UACC-257 melanoma
[55] = tested on: UACC-62 melanoma
[56] = tested on: UO-31 renal
[57] = tested on: MALME-3M melanoma
[58] = tested on: SK-MEL-28 melanoma

NS(=O)(=O)c1ccc(NC(=S)/N=C/c2c(O)c3ccccc3oc2=O)cc1
TGI [1]: > 100 µM | TGI [2]: 64.1 µM | TGI [3]: > 100 µM | TGI [4]: > 100 µM | TGI [5]: > 100 µM | TGI [6]: 62.4 µM | TGI [7]: > 100 µM | TGI [8]: > 100 µM | TGI [9]: > 100 µM | TGI [10]: > 100 µM | TGI [11]: > 100 µM | TGI [12]: > 100 µM | TGI [13]: > 100 µM | TGI [14]: > 100 µM | TGI [15]: > 100 µM | TGI [16]: 68.1 µM | TGI [17]: 99.6 µM | TGI [18]: > 100 µM | TGI [19]: 97.1 µM | TGI [20]: > 100 µM | TGI [21]: > 100 µM | TGI [22]: > 100 µM | TGI [23]: > 100 µM | TGI [24]: > 100 µM | TGI [25]: 65 µM | TGI [26]: > 100 µM | TGI [27]: > 100 µM | TGI [28]: > 100 µM | TGI [29]: 61 µM | TGI [30]: > 100 µM | TGI [31]: > 100 µM | TGI [32]: 88.6 µM | TGI [33]: > 100 µM | TGI [34]: > 100 µM | TGI [35]: > 100 µM | TGI [36]: > 100 µM | TGI [37]: > 100 µM | TGI [38]: > 100 µM | TGI [39]: > 100 µM | TGI [40]: 80.9 µM | TGI [41]: > 100 µM | TGI [42]: > 100 µM | TGI [43]: > 100 µM | TGI [44]: > 100 µM | TGI [45]: 96.1 µM | TGI [46]: > 100 µM | TGI [47]: > 100 µM | TGI [48]: 85.5 µM | TGI [49]: 53.3 µM | TGI [50]: > 100 µM | TGI [51]: > 100 µM | TGI [52]: > 100 µM | TGI [53]: > 100 µM | TGI [54]: > 100 µM | TGI [55]: > 100 µM | TGI [56]: 87.6 µM

O=C1C=CC(=O)C(CNc2ccc(C(=O)OC34CC5CC(CC(C5)C3)C4)cc2)=C1Br
TGI [1]: 28.3 µM | TGI [2]: 33.1 µM | TGI [3]: 49.3 µM | TGI [4]: 28.4 µM | TGI [5]: 20.5 µM | TGI [6]: 12.5 µM | TGI [7]: 7.41 µM | TGI [8]: 24.1 µM | TGI [9]: 94.8 µM | TGI [10]: 20.5 µM | TGI [11]: 28.3 µM | TGI [12]: 27.1 µM | TGI [13]: 21.4 µM | TGI [15]: 62.2 µM | TGI [16]: 12.3 µM | TGI [17]: 27.2 µM | TGI [18]: 16.8 µM | TGI [19]: 15.6 µM | TGI [20]: 32.7 µM | TGI [21]: 19.7 µM | TGI [22]: 23.4 µM | TGI [23]: 60 µM | TGI [57]: 15.5 µM | TGI [24]: 48.1 µM | TGI [25]: 24.3 µM | TGI [26]: 65.5 µM | TGI [27]: 33 µM | TGI [28]: 25.5 µM | TGI [29]: 32.4 µM | TGI [30]: 23.9 µM | TGI [31]: 29.4 µM | TGI [32]: 1.44 µM | TGI [33]: 18.4 µM | TGI [34]: 39.4 µM | TGI [35]: 22.6 µM | TGI [36]: 38 µM | TGI [37]: 23.9 µM | TGI [38]: 19 µM | TGI [39]: 33.4 µM | TGI [40]: 17.5 µM | TGI [41]: 27.4 µM | TGI [42]: 33.5 µM | TGI [43]: 5.6 µM | TGI [44]: 38.2 µM | TGI [45]: 22 µM | TGI [46]: 34.2 µM | TGI [47]: 34.1 µM | TGI [48]: 35.4 µM | TGI [49]: 19.7 µM | TGI [50]: 68.1 µM | TGI [51]: 18.5 µM | TGI [52]: 28.6 µM | TGI [53]: 38.2 µM | TGI [54]: 29.1 µM | TGI [55]: 21.6 µM | TGI [56]: 21.2 µM

CCOC(=O)[C@H]1O[C@@H]1C(=O)NC(CC(C)C)C(=O)NCCC(C)C (some centres undefined)
TGI [1]: > 100 µM | TGI [2]: > 100 µM | TGI [3]: > 100 µM | TGI [5]: > 100 µM | TGI [6]: > 100 µM | TGI [7]: > 100 µM | TGI [8]: > 100 µM | TGI [9]: > 100 µM | TGI [10]: > 100 µM | TGI [11]: > 100 µM | TGI [12]: > 100 µM | TGI [13]: > 100 µM | TGI [15]: > 100 µM | TGI [16]: > 100 µM | TGI [17]: > 100 µM | TGI [18]: > 100 µM | TGI [19]: > 100 µM | TGI [20]: > 100 µM | TGI [21]: > 100 µM | TGI [23]: > 100 µM | TGI [57]: > 100 µM | TGI [24]: > 100 µM | TGI [25]: > 100 µM | TGI [26]: > 100 µM | TGI [27]: > 100 µM | TGI [28]: > 100 µM | TGI [29]: > 100 µM | TGI [30]: > 100 µM | TGI [31]: > 100 µM | TGI [32]: > 100 µM | TGI [33]: > 100 µM | TGI [34]: > 100 µM | TGI [35]: > 100 µM | TGI [36]: > 100 µM | TGI [37]: > 100 µM | TGI [38]: > 100 µM | TGI [39]: > 100 µM | TGI [41]: > 100 µM | TGI [42]: > 100 µM | TGI [43]: > 100 µM | TGI [58]: > 100 µM | TGI [45]: > 100 µM | TGI [46]: > 100 µM | TGI [47]: > 100 µM | TGI [48]: > 100 µM | TGI [49]: > 100 µM | TGI [50]: > 100 µM | TGI [51]: > 100 µM | TGI [53]: > 100 µM | TGI [54]: > 100 µM | TGI [55]: > 100 µM | TGI [56]: > 100 µM
